#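 Following 48 hours of exposure in 96-well plates, responses at five concentrations were used to interpolate endpoints linearly. TGI is the concentration that stops growth completely.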
# Key:
# Test in all cases: NCI anticancer screen, dose series, 48 h
# [1] = test system: A549 NSCLC
# [2] = test system: CAKI-1 renal
# [3] = test system: CCRF-CEM leukemia
# [4] = test system: HCT-15 colon
# [5] = test system: HS 578T breast
# [6] = test system: K-562 leukemia
# [7] = test system: MALME-3M melanoma
# [8] = test system: MDA-MB-231 breast
# [9] = test system: NCI-H226 lung
# [10] = test system: PC-3 prostate
# [11] = test system: SF-268 CNS
# [12] = test system: SNB-19 CNS
# [13] = test system: UACC-257 melanoma
# [14] = test system: UACC-62 melanoma
# [15] = test system: UO-31 renal
# [16] = test system: NCI-H460 lung
# [17] = test system: SF-295 CNS
# [18] = test system: SNB-75 CNS
# [19] = test system: HCC-2998 colon
# [20] = test system: SR leukemia
Compound,TGI [1] [µM],TGI [2] [µM],TGI [3] [µM],TGI [4] [µM],TGI [5] [µM],TGI [6] [µM],TGI [7] [µM],TGI [8] [µM],TGI [9] [µM],TGI [10] [µM],TGI [11] [µM],TGI [12] [µM],TGI [13] [µM],TGI [14] [µM],TGI [15] [µM],TGI [16] [µM],TGI [17] [µM],TGI [18] [µM],TGI [19] [µM],TGI [20] [µM]
C/C(=N\n1c(Cc2ccccc2)n[nH]c1=O)c1ccccc1,> 100,> 100,> 100,> 100,> 100,> 100,> 100,> 100,> 100,> 100,> 100,> 100,> 100,> 100,> 100,–,–,–,–,–
Cc1cc(C)c(S(=O)(=O)N2CCCN(S(=O)(=O)c3c(C)cc(C)cc3C)OCCCO2)c(C)c1,> 100,> 100,> 100,> 100,> 100,> 100,> 100,> 100,> 100,> 100,> 100,> 100,> 100,> 100,> 100,> 100,> 100,> 100,–,–
COc1cccc2c1CCc1cc3c(N)nc(N)nc3nc1-2,7.69,45.7,7.02,23.4,–,> 21.4,10.3,15.9,43.2,18.3,42.4,26.7,31.4,16.7,9.7,25,9.91,34.9,5.78,> 34.5
Nn1c(CCCCCCCCc2nnc(COc3ccc4ccccc4c3O)n2N)nnc1COc1ccc2ccccc2c1O,> 100,41.8,–,> 100,–,> 100,> 100,76.9,79.1,> 100,> 100,> 100,> 100,> 100,> 100,> 100,98.1,> 100,67.7,–
Clc1nssc1=Nc1nonc1-c1ccccc1,> 100,34.6,90.8,> 100,–,70.1,99.2,34.5,> 100,> 100,–,> 100,> 100,> 100,36.3,> 100,> 100,64.2,> 100,68.6
COc1ccc2cc3[nH]c(=O)cc(O)c3cc2c1OC,> 100,> 100,> 100,> 100,–,> 100,> 100,–,> 100,–,> 100,> 100,> 100,> 100,> 100,> 100,> 100,> 100,> 100,> 100
COc1cccc(C2c3cc4c(cc3OC(N3CCOCC3)C2C)OCO4)c1OC (stereo not given),> 100,5.36,28.8,> 100,63.5,21.1,–,–,–,40.6,92.2,24.2,48.8,85.5,33.6,30.7,32.9,37.2,22.8,24.4
CN(C)CC1CN=C(N)O1 (stereo not given),> 100,> 100,> 100,> 100,–,> 100,> 100,> 100,> 100,> 100,> 100,> 100,> 100,> 100,> 100,> 100,> 100,–,> 100,–
CCCSc1ccc2[nH]c(/N=C/c3ccccc3)cc2c1,–,> 100,64.4,> 100,62.1,38.8,55.7,–,–,> 100,49.2,–,57,35,> 100,–,–,> 100,–,27.8
COC(=O)c1ccc(NC(=O)O/N=C(\Cl)C(C)C)cc1,43.2,3.08,–,3.49,> 66.7,–,3.48,15.6,> 53.6,31.1,> 78.1,31.8,28.6,27,28.7,41.2,33.3,26.3,28.1,–
Cn1c(=O)n2n(c1=O)C(S(=O)(=O)c1ccccc1)C2 (stereo not given),> 100,> 100,> 100,> 100,> 100,> 100,> 100,> 100,–,> 100,> 100,> 100,> 100,> 100,> 100,> 100,> 100,> 100,> 100,–
COC(=O)C1=CSC2(S1)C(C(=O)OC)=CSc1c2ssc1=O (stereo not given),28.3,10.7,2.47,3.31,12.3,> 23,6.18,4.13,44.9,6.03,8.89,16.1,4,4.16,3.25,24.5,40.5,8.16,8.82,–
COc1ccc(C2SCC(=O)N2NC(=O)c2ccncc2)cc1F (stereo not given),> 100,> 100,–,> 100,–,–,> 100,–,> 100,–,> 100,> 100,> 100,–,–,> 100,> 100,> 100,> 100,> 100
CC(=O)O/C=C1/C[C@H]2[C@@H]3CCC4CC(C(C)=O)CC[C@]4(C)[C@H]3CC[C@]2(C)C1=O (stereo not given in full),–,> 100,> 100,> 100,–,> 100,> 100,> 100,> 100,> 100,> 100,> 100,> 100,> 100,> 100,> 100,> 100,–,> 100,> 100

# — PubChem BioAssay (NCI)
